In PMC11428815, “Characterization of Novel SARM1 Inhibitors for the Treatment of Chemotherapy-Induced Peripheral Neuropathy” (Biomedicines, 2024):

System: T1, SARM1 TIR domain (DmrB–TIR)
T1 construct: the SARM1 TIR domain was constructed into an Fkbp variant (DmrB); expressed in transfected cells; host or cells: 293T cells
Test: DmrB–TIR dimerization (AP20187)-induced cell death in 293T cells
Assay type: cell-based
Details: 24 h after AP20187 addition
Description: To verify the inhibitory mechanism of SARM1 owing to the TIR domain, the SARM1 TIR domain was constructed into an Fkbp variant (DmrB) at its N terminus, which undergoes homodimerization in the presence of AP20187 (a rapamycin analog) (Figure 2A).
Figure 2 Design and characterization of the toxic effects of the SARM1 TIR domain in 293T cells using different compounds. (A) Scheme for TIR dimerization to verify the TIR domain using an Frb–Fkbp moiety fusion. (B) Compounds used and NR display prevention of DmrB–TIR-dependent death 24 h after AP20187 addition.

NC(=O)c1ccc[n+]([C@@H]2O[C@H](CO)[C@@H](O)[C@H]2O)c1 [NR]
prevention of DmrB–TIR-dependent cell death (cell viability): cell death caused by TIR dimerization was alleviated
